The target of one experiment is KCNQ2 (Homo sapiens, UniProt O43526). Description: TEVC of homomeric KCNQ2 expressed in Xenopus oocytes. The class given is cell-based. The source says: cRNA transcripts encoding human KCNA1, KCNQ1, KCNQ2, KCNQ3, KCNQ4, or KCNQ5 were generated by in vitro transcription using the T7 polymerase message machine kit (Thermo Fisher Scientific), after vector linearization, from cDNA sub-cloned into plasmids incorporating X. laevis β-globin 5′ and 3′ UTRs flanking the coding region to enhance translation and cRNA stability. cRNA was quantified by spectrophotometry. Mutant cDNAs were generated by site-directed mutagenesis using a QuikChange kit according to manufacturer's protocol (Stratagene, San Diego, Calif.) and corresponding cRNAs prepared as above. Defolliculated stage V and VI X. laevis oocytes (Ecocyte Bioscience, Austin, Tex.) were injected with Kv channel a subunit cRNAs (10 ng total per oocyte). Oocytes were incubated at 16° C. in Barth's saline solution (Ecocyte) containing penicillin and streptomycin, with daily washing, for 3-5 days prior to two-electrode voltage-clamp (TEVC) recording.
TEVC recording was performed at room temperature with an OC-725C amplifier (Warner Instruments, Hamden, Conn.) and pClamp10.2 software (Molecular Devices, Sunnyvale, Calif.) 3-5 days after cRNA injection as described in the section above. Oocytes were placed in a small-volume oocyte bath (Warner) and viewed with a dissection microscope. Chemicals were sourced from Sigma. Bath solution was (in mM): 96 NaCl, 4 KCl, 1 MgCl2, 1 CaCl2. 10 HEPES (pH 7.6). […] MTX (DMSO), sorbic acid (ethanol), and glutaconic acid (molecular grade H2O) were stored at −20° C. as 1 M stocks. Oleamide was stored as a 1 mM stock in ethanol at 4° C. Palmitic acid was conjugated with bovine serum albumin as a 1 mM stock and stored at −20° C. All compounds were diluted to working concentrations each experimental day. All compounds were introduced to the recording bath via gravity perfusion at a constant flow of 1 ml/min for 3 min prior to recording. Pipettes were of 1-2 MΩ resistance when filled with 3 M KCl. Currents were recorded in response to pulses between −80 and +40 mV at 20 mV intervals, or a single pulse to +40 mV, from a holding potential of −80 mV, to yield current-voltage relationships, current magnitude, and for quantifying activation rate. TEVC data analysis was performed with Clampfit10.2 (Molecular Devices) and Graphpad Prism software (GraphPad, San Diego, Calif., USA); values are stated as mean±SEM. Normalized tail currents were plotted versus prepulse voltage and fitted with a single Boltzmann function:
(§1) cRNA transcripts encoding human KCNQ2, KCNQ3, KCNQ4, KCNQ5 (Kv7.2-Kv7.5) were generated by in vitro transcription using the T7 polymerase mMessage mMachine kit (Thermo Fisher Scientific), after vector linearization, from cDNA sub-cloned into plasmids incorporating Xenopus laevis β-globin 5′ and 3′ UTRs flanking the coding region to enhance translation and cRNA stability. cRNA was quantified by spectrophotometry. Mutant KCNQ2 and KCNQ3 cDNAs were generated with site-directed mutagenesis using a QuikChange kit according to the manufacturer's protocol (Stratagene, San Diego, Calif.) and corresponding cRNAs prepared as above. Defolliculated stage V and VI Xenopus laevis oocytes (Ecocyte Bioscience, Austin, Tex.) were injected with KCNQ channel α subunit cRNAs (5-10 ng). The oocytes were incubated at 16° C. in Barth's saline solution (Ecocyte) containing penicillin and streptomycin, with daily washing, for 2-5 days prior to two-electrode voltage-clamp (TEVC) recording.
TEVC recording was performed at room temperature using a OC-725C amplifier (Warner Instruments, Hamden, Conn.) and pClamp8 software (Molecular Devices, Sunnyvale, Calif.) 2-5 days after cRNA injection as described in the section above. The oocytes were placed in a small-volume oocyte bath (Warner) and viewed with a dissection microscope. Unless otherwise stated, chemicals were sourced from Sigma. Bath solution was (in mM): 96 NaCl, 4 KCl, 1 MgCl2, 1 CaCl2, 10 HEPES (pH 7.6).

The next experiment concerns the target KCNQ2/KCNQ3-W265L (Homo sapiens, UniProt O43525+O43526, W265L). Description: TEVC of KCNQ2/KCNQ3-W265L channels. The class given is cell-based.
Text: as §1
TEVC recording was performed at room temperature using a OC-725C amplifier (Warner Instruments, Hamden, Conn.) and pClamp8 software (Molecular Devices, Sunnyvale, Calif.) 2-5 days after cRNA injection as described in the section above. The oocytes were placed in a small-volume oocyte bath (Warner) and viewed with a dissection microscope. Unless otherwise stated, chemicals were sourced from Sigma. Bath solution was (in mM): 96 NaCl, 4 KCl, 1 MgCl2, 1 CaCl2, 10 HEPES (pH 7.6). […] The drugs were introduced into the recording bath by gravity perfusion at a constant flow of 1 ml per minute for 3 minutes prior to recording. Pipettes were of 1-2 MΩ resistance when filled with 3 M KCl. Currents were recorded in response to pulses between −80 mV and +40 mV at 20 mV intervals, or a single pulse to +40 mV, from a holding potential of −80 mV, to yield current-voltage relationships, current magnitude, and for quantifying activation rate. Deactivation was recorded at −80 mV after a single pulse to +40 mV, from a holding potential of −80 mV. Electrophysiology data analysis was performed with Clampfit (Molecular Devices) and Graphpad Prism software (GraphPad, San Diego, Calif., USA); values are stated as mean±SD. Raw or normalized tail currents were plotted versus prepulse voltage and fitted with a single Boltzmann function:
As previously described (12), we generated cRNA transcripts encoding human KCNA1, KCNE1, KCNE2, KCNE3, KCNQ1, KCNQ2, KCNQ3, KCNQ4 or KCNQ5 by in vitro transcription using the T7 polymerase mMessage mMachine kit (Thermo Fisher Scientific), after vector linearization, from cDNA sub-cloned into plasmids incorporating Xenopus laevis β-globin 5′ and 3′ UTRs flanking the coding region to enhance translation and cRNA stability. We quantified cRNA by spectrophotometry. […]

SMILES strings stand for the structures. “Also recorded” adds a separate entry of the source. Where two headings read alike, the source gives them in different places.

Regarding `CS(=O)(=O)N(CC(=O)O)c1cccc(F)c1` [3FMSG], at KCNQ2, the “effect of tenfold excess (100 μM) on KCNQ2 activation by 2FPG (10 μM)” value is on record as “subtly reduced the efficacy” and the “effect on KCNQ2 (in words)” value is reported as “negligible effects”. For the same molecule, the “effect on KCNQ2/KCNQ3-W265L (in words)” value at KCNQ2/KCNQ3-W265L is reported as “dependent on KCNQ3-W265; also recorded: eliminated effects of 3FMSG”.
For orientation: EC50 means the concentration needed to bring the measured effect to its halfway point. For the molecule `CCCCCCCCC/C=C/C=O` [(E)-2-dodecenal], the EC50 on KCNQ2 (read-out: EC50 of KCNQ2 activation by (E)-2-dodecenal) turned out to be 60 ± 10 nM; on KCNQ2/KCNQ3-W265L (ΔV0.5activation, read-out: EC50 of (E)-2-dodecenal) it was 270 ± 20 nM. The “maximal shift in ΔV0.5activation” value on KCNQ2/KCNQ3-W265L ((E)-2-dodecenal) is reported as −9 mV.
For the molecule `CC(=O)c1c(O)c(C)c(O)c(Cc2c(O)c3c(c(C(=O)/C=C/c4ccccc4)c2O)OC(C)(C)C=C3)c1O` [MTX, mallotoxin], the “shift of midpoint voltage of KCNQ2 activation” value on KCNQ2 (MTX 30 μM) is reported as −24 mV. Further, on KCNQ2 (−60 mV, read-out: EC50 of KCNQ2 activation), the EC50 is 6400 nM.
With `NCC1(CC(=O)O)CCCCC1` [gabapentin, reference compound], at KCNQ2, the “effect on KCNQ2 (in words)” value is given as “insensitive”. Moreover, the “effect on KCNQ2/KCNQ3-W265L (in words)” value at KCNQ2/KCNQ3-W265L was “insensitive”.
For `NCC(=O)O` [glycine, reference compound], the “effect on KCNQ2 (in words)” value on KCNQ2 is “unable to open”.

For the origin of these results see patent US12268683B2, “Compounds and methods for synergistic activation of M channels” (THE REGENTS OF THE UNIVERSITY OF CALIFORNIA, priority 2018, dated 2025).
